Data set [1] is described as follows: In vitro release of BBA by dialysis method. It is filed as physicochemical. Particulars: during the first 24 h, PBS with 0.5% Tween 80, pH 7.4, 37 °C. The procedure: Release of BBA from BBA/CM-β-CD and BBA/FA-PEG-CM-β-CD was investigated in vitro using the dialysis method. […] At different time points (0.25, 0.5, 1, 2, 3, 4, 6, 8, 12, 48, 72 and 96 h), 1.0 mL of release medium was removed and replaced with fresh medium.

The subject of another data set is CaCo-2 cells. The experiment in a line: MTT cell-growth inhibition. It is filed as cell-based, human. The following applies: 24 h, 48 h, 72 h, 5-FU at 20 μg/mL. Here is the method:
(§1) CaCo-2 and SW620 cells were used as model cells to evaluate the anticancer effects in vitro. Single-cell suspension was prepared with DMEM containing 10% Gibco FBS and 1% penicillin–streptomycin. The cells were seeded in a 96-well plate (3500 cells/well) and incubated respectively for 24 h, 48 h, and 72 h at 37 °C with 5% CO2. […] The medium was removed, and cells were washed three times with PBS before incubation with MTT for 4 h at 37 °C. After the medium was removed, 100 μL of DMSO was added to the well for 10 min. The absorbance of the solution was measured at 570 nm by Multimode Reader (Bio Tek Synergy H1).

Data set [2] relates to SW620 cells. The experiment in a line: MTT cell-growth inhibition. It counts as cell-based, human. The following applies: 24 h, 48 h, 72 h, 5-FU at 20 μg/mL. The procedure:
as §1

Data set [3] deals with SW620 cells. Briefly: Cell apoptosis, Annexin V/PI flow cytometry. It is filed as cell-based, human. The following applies: 30 μM, 48 h. Here is the method: For the cell apoptosis detection, the cells in the different groups were washed three times with PBS and incubated with Annexin V-FITC solution for 10 min. Then, flow cytometry analysis was performed to detect the FITC and PI fluorescent intensity and report the percentage of the cell population within each plot quadrant.
(In flow cytometry, cells or beads pass a laser one at a time.)

For data set [4], the system named is SW620 cells. The experiment in a line: Cell cycle analysis, propidium iodide flow cytometry. It counts as cell-based, human. Particulars: 48 h. The procedure:
For the cell cycle analysis, the cells in the different groups were washed three times with PBS and incubated with 1 mL of pre-cooled 70% alcohol at 4 °C for 24 h. After the cells were fixed, centrifuged at 300 × g for 5 min to collect the cells. 1 mL of cold PBS was added to re-suspend the cells and centrifuged at 300 × g for 5 min to remove the supernatant. 10 μL of RNaseA (50 ×) and 25 μL of propidium iodide (20 ×) in 0.5 mL of buffer were added. Finally, flow cytometry was used for cell cycle detection.

Another data set has as its system Kunming mice. It counts as in vivo. The following applies: for Bodyweight End: end of 14 d observation; for Amount (start/end), survival: observed 14 d. The procedure: All animals were given a single oral gavage of 0.2 mL of different dosage forms, and their body weight was monitored every day. Meanwhile, the toxicity and mortality of all animals were observed every day. The conventional changes such as the cases of the diet, urine, and feces were recorded. On the 15th day after treatment, the blood of each group was collected from the heart and centrifuged at 1,000 × g for 10 min to collect serum. An automated biochemical analyzer was used to detect serum alanine aminotransferase (ALT), aspartate aminotransferase (AST), blood urea nitrogen (BUN), and creatinine (Cr). Meanwhile, the heart, liver, lung, and kidney were quickly excised, washed with normal saline, and weighed. The visceral index is estimated according to the following formula as Viscera Index (%) = Viscera Weight / Body Weight × 100. And then, all the tissues were fixed with 10% formalin and stained with hematoxylin & eosin (H&E) for pathological analysis.

Data set [5] can be described thus: Pharmacokinetics: butyric acid in plasma after gavage. It is filed as in vivo, SW620 tumor-bearing BALB/C nude mice. Particulars: gavage 0.366 g/kg. Here is the method: SW620 tumor-bearing mice were randomly divided into 3 groups (n = 5). […] The blood was collected respectively from the heart at 0.25, 0.5, 1, 2, 3, 4, 6, 8, 12, 24, 36, 48, and 72 h after administration. The whole blood was quickly centrifuged at 2000 × g for 5 min, and the upper plasma was precisely aspirated. Then 0.35 mL of methanol was added, vortexed for 2 min, and centrifuged at 3350 × g for 15 min. The supernatant was used to detect butyric acid by HPLC [45]. The pharmacokinetic parameters were calculated by non-compartmental analysis using Drug Analysis System (DAS 2.1.1, Shanghai, China).

The subject of data set [6] is SW620 xenografts. Briefly: Pharmacodynamic evaluation, tumor growth inhibition. It counts as in vivo, BALB/C nude mice. The following applies: every two days for 7 times, tumor weight on day 25 post-implantation. Here is the method:
Ten days after tumor transplantation, the SW620 tumor-bearing mice were randomly divided into 8 groups with 5 mice in each group when the tumors reached about 100 mm^3. The animals were weighed before treatment, and the measurement was continued every 2 days. The two axes of the tumor were measured with a vernier micrometer (L, longest axis; W, shortest axis). Tumor volume (mm^3) was calculated as ½ (L × W^2). Anti-tumor activity was evaluated by tumor growth inhibition (TGI), which was the mean tumor weight (MTW) of the treated group (TG) relative to the saline-treated control group (CG) on day 15, as calculated according to the formula [47]. […].

Data set [7] relates to SW620 xenografts. Briefly: H&E pathological analysis of tumor tissue (necrosis rate). It counts as in vivo, nude mice. The following applies: 15 days post-administration. Here is the method: (§2) 15 days post-administration, all nude mice were sacrificed. The tumor tissues were collected, stained with H&E, and observed under an inverted microscope (400 ×). In addition, the TUNEL test was performed to detect cell apoptosis. Meanwhile, the expressions of both VEGFR-3 and Ki-67 were detected by ELISA.

Data set [8] concerns SW620 xenografts. The experiment in a line: TUNEL test of tumor tissue (apoptosis rate). The following applies: 15 days post-administration. It counts as in vivo, nude mice. Here is the method: as §2
A further data set deals with VEGFR-3. Briefly: VEGFR-3 expression in tumor tissue. It counts as in vivo, nude mice. Particulars: tumor tissue of SW620 xenografts. Here is the method: as §2
The next data set has as its system Ki-67. The experiment in a line: Ki-67 expression in tumor tissue. The following applies: tumor tissue of SW620 xenografts. It is filed as in vivo, nude mice. The procedure: as §2
Data set [9] is described as follows: Solubility observed during carrier synthesis. It counts as physicochemical. The following applies: water.
The mark [10] stands for this setting: Kunming mice, before single oral gavage.
[11] abbreviates: Kunming mice, single oral gavage.
[12] abbreviates: serum, Kunming mice, 15th day after single oral gavage.

Here are results for five compounds from PMC8524854, “A novel dual-prodrug carried by cyclodextrin inclusion complex for the targeting treatment of colon cancer” (Journal of Nanobiotechnology, 2021).

By Cmax is commonly meant the maximum level reached in the sampled fluid or tissue.

Like-named read-outs stand apart in the source and are kept apart here. Marks after values point to notes of the source that are not given here.

In the case of “2-butyryl oxy-5-butylaminyl benzoic acid [BBA]”, the “in vitro accumulative release of BBA” value in data set [1] is 90%. For the same compound, the cell-proliferation inhibition effect result in the data set on CaCo-2 cells is “some cell-proliferation inhibition effect”. Besides, the cell-proliferation inhibition effect result in the data set on SW620 cells [2] was “some cell-proliferation inhibition effect”. The “apoptotic rate including early apoptosis and late apoptosis” value in the data set on SW620 cells [3] was 32.21% ± 8.26%. Moreover, the cell cycle arrest result in the data set on SW620 cells [4] is given as “mainly arrested at the G0/G1 phase”. The “Bodyweight Start” value with Kunming mice (setting [10]) worked out at 18.48 ± 0.63 g. Moreover, in the data set on Kunming mice (setting [11]), the “Bodyweight End” value is listed as 18.16 ± 0.63 g and the “Amount (start/end), survival” value is 5/5. Moreover, in the data set on Kunming mice (setting [12]), the ALT is reported as 18.53 ± 0.65 U/L, the AST was determined as 57.27 ± 10.20 U/L, the BUN amounted to 6.32 ± 0.97 mmol/L and the Cr stood at 8.63 ± 1.96 µmol/L. In [5], this compound registered an AUC0-t of 219.263 ± 5.360 µg·h/mL, a CL of 12.760 ± 0.268 mL/h/kg, a Cmax of 35.923 ± 0.826 µg/mL and an MRT0-t of 4.769 ± 0.115 h. Besides, the “mean tumor inhibitory rate” value in the data set on SW620 xenografts [6] is given as 41.76% ± 7.56%. The same compound came in with an average necrosis rate in the data set on SW620 xenografts [7] of 20%. In the data set with SW620 xenografts [8], the “apoptosis rate (TUNEL)” value came to 3.27%. Moreover, the VEGFR-3 positive area result in the data set with VEGFR-3 is listed as “significantly reduced”.
`Nc1ccc(O)c(C(=O)O)c1` [5-ASA, 5-aminosalicylic acid]: in the data set with Kunming mice (setting [11]), the “Amount (start/end), survival” value is recorded as 5/5. Further, in the data set with Kunming mice (mouse, in vivo, po), the ALT was determined as 23.20 ± 2.87 U/L, the “Average weight change rate” value came out at 4.63%, the “Bodyweight Start” value is 18.58 ± 0.41 g and the Cr worked out at 9.55 ± 0.36 µmol/L. For the same compound, the “mean tumor inhibitory rate” value with SW620 xenografts [6] is given as 31.33% ± 7.17%. This compound showed an average necrosis rate in the data set on SW620 xenografts [7] of 15%. Moreover, the “apoptosis rate (TUNEL)” value in the data set on SW620 xenografts [8] is recorded as 2.44%. Besides, the VEGFR-3 positive area result in the data set with VEGFR-3 was “significantly reduced”.
As for `O=c1[nH]cc(F)c(=O)[nH]1` [5-FU, 5-fluorouracil], the cell-proliferation inhibition effect entry in the data set on CaCo-2 cells was “drastically enhanced the cell proliferation inhibition rate compared with the BBA group”. For the same compound, in the data set with SW620 cells [2], the cell-proliferation inhibition effect entry was “drastically enhanced the cell proliferation inhibition rate compared with the BBA group”. Moreover, the “Amount (start/end), survival” value in the data set with Kunming mice (setting [11]) is 5/5. Besides, the “serum biochemical analysis indexes” value in the data set on Kunming mice (mouse, in vivo) is “AST and ALT increased significantly”. In the data set on Kunming mice (mouse, in vivo, po), the ALT is given as 292.50 ± 6.60 U/L, the AST stood at 254.00 ± 53.4 U/L, the “Average weight change rate” value is “− 4.46* %” and the BUN turned out to be 6.92 ± 1.20 mmol/L. In addition, in the data set with Kunming mice (mouse, in vivo, po), the “Bodyweight Start” value is given as 18.82 ± 0.61 g, the Cr was found to be 7.45 ± 2.91 µmol/L, the Heart index worked out at 0.81 ± 0.28% and the Lung index came out at 0.85 ± 0.11%. Besides, the “decrease of average body weight” value with Kunming mice (mouse, in vivo, po) is listed as 4.46%. For the same compound, the “mean tumor inhibitory rate” value in the data set with SW620 xenografts [6] is given as 85.85% ± 2.89%. In the data set with SW620 xenografts [7], this compound registered an average necrosis rate of 50%. In the data set on SW620 xenografts [8], the “apoptosis rate (TUNEL)” value was 8.87%. The VEGFR-3 positive area result in the data set with VEGFR-3 was “significantly reduced”. In the data set with Ki-67, the Ki-67 positive expression result is given as “significant decrease of the positive expression”.
Consider `Nc1nc2ncc(CNc3ccc(C(=O)N[C@@H](CCC(=O)O)C(=O)O)cc3)nc2c(=O)[nH]1` [FA, Folic acid], for which the solubility entry in data set [9] is listed as “too poor”.
As for `CCCC(=O)[O-].[Na+]` [NaB, sodium butyrate], the “Bodyweight Start” value with Kunming mice (setting [10]) came to 18.24 ± 0.53 g. For the same compound, in the data set on Kunming mice (setting [11]), the “Bodyweight End” value amounted to 19.14 ± 0.52 g and the “Amount (start/end), survival” value is recorded as 5/5. Moreover, the “Average weight change rate” value in the data set on Kunming mice (Kunming mice, single oral gavage, start to end) came to 4.93%. In the data set with Kunming mice (setting [12]), this compound registered an ALT of 17.37 ± 1.77 U/L, an AST of 58.17 ± 4.75 U/L and a BUN of 8.60 ± 0.98 mmol/L. In addition, the “mean tumor inhibitory rate” value in the data set with SW620 xenografts [6] is listed as 15.30% ± 5.61%. In addition, the average necrosis rate with SW620 xenografts [7] amounted to 10%. Besides, in the data set on SW620 xenografts [8], the “apoptosis rate (TUNEL)” value was determined as 1.45%. The VEGFR-3 positive area result in the data set with VEGFR-3 was “significantly reduced”.
